Results reported in PMC12775434, “Ultra-large virtual screening unveils potent agonists of the neuromodulatory orphan receptor GPR139” (Nature Communications, 2025).
Where “and” joins values, the source holds several entries; their conditions need not be identical. Equal entries are not always repeated. Where two headings read alike, the source gives them in different places.

How the values were obtained:
[1] = target: T1, human muscarinic acetylcholine M1 receptor (M1R) (Homo sapiens, UniProt P11229); assay: Ca2+ mobilization counter-screen in M1R-CHOk1 cells; assay type: cell-based;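 note: 10 µM test compound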
T1 sequence (P11229 1-460): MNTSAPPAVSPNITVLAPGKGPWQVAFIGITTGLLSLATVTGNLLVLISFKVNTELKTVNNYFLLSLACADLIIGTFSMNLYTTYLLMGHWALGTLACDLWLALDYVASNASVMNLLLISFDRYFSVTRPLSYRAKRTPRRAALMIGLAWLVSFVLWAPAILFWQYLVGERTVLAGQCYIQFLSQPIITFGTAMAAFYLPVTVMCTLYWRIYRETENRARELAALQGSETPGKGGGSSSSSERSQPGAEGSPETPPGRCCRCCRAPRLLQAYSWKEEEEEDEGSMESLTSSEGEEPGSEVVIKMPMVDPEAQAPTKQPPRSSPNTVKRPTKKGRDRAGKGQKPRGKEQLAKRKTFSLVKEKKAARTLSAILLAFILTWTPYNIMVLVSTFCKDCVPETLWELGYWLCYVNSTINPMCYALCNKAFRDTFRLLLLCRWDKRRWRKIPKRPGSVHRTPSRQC
Procedure, shortened: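 M1R-CHOk1 cells seeded at 30,000/well for 20–24 h were loaded with 2 µM Fluo-4 AM for 1 h at 37 °C in HEPES-buffered HBSS (pH 7.4, 2.5 mM probenecid). Compounds were added after baseline reads, with DMSO at most 0.3% final. Calcium mobilization was read at 37 °C, excitation 485/emission 525 nm.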

[2] = target: T2, GPR139 (Homo sapiens, UniProt Q6DWJ6); assay: Inositol monophosphate (IP1) accumulation assay, GPR139-CHOk1; assay type: cell-based; settings: for Emax: normalized to Lundbeck Cmp 1a, read-out: Emax (%) IP1
T2 sequence (Q6DWJ6 1-353): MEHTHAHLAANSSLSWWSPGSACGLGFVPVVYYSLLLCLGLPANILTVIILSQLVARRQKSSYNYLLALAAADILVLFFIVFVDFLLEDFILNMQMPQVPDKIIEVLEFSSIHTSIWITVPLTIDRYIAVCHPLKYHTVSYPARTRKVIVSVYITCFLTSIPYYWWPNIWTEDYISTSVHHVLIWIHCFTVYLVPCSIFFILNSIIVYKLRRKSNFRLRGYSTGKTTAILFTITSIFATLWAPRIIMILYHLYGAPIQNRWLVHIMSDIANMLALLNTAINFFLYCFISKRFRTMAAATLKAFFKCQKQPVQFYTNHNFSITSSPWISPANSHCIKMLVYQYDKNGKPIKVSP
Procedure: Primary screening and pharmacological characterization of compounds were performed using a CHO-K1 cell line that stably expresses human GPR139 (GPR139-CHOk1). The GPR139-CHOk1 cell line was kindly provided by H. Lundbeck A/S, Denmark[24]. GPR139-CHOk1 cells were grown in Ham’s F-12 Kaighn’s Modification Medium (ThermoFisher #21127030) supplemented with 10% dialyzed fetal bovine serum (US origin, ThermoFisher #26400044), 100 units/mL Penicillin-Streptomycin (ThermoFisher #15140122), and 1 mg/mL Geneticin (ThermoFisher #11811031). […] M1R-CHOk1 cells were purchased from The Missouri S&T cDNA Resource Center (#CEM100TN00). M1R-CHOk1 cells were grown in Ham’s F12 Medium (ThermoFisher #21765029) supplemented with 10% fetal bovine serum (Brazilian origin, ThermoFisher #10270106), 100 units/mL Penicillin-Streptomycin, and 0.25 mg/mL Geneticin. HEK293A cells transiently transfected with GPR139 were used for additional pharmacological assessment of signaling pathways activated by GPR139. HEK239A cells were generously provided by Dr. Asuka Inoue, Tohoku University, Japan. HEK293A cells were grown in Dulbecco’s Modified Eagle Medium (ThermoFisher #31966047) supplemented with 10% dialyzed fetal bovine serum and 100 units/mL Penicillin-Streptomycin. Cell lines were maintained at 37 °C in humidified incubator equilibrated with 5% CO2.
HTRF IP-One Gq kit (Cisbio #62IPAPEC) was used to detect the accumulation of inositol monophosphate (IP1) as described in the work by Shehata et al.[26]. GPR139-CHOk1 cells were dissociated and resuspended in HEPES buffer. 50,000 cells in 5 µL and 5 µL test compounds diluted from DMSO stocks (final DMSO concentration of maximally 0.3%) in HEPES buffer supplemented with 40 mM LiCl were mixed in each well of white 384-well OptiPlate (PerkinElmer #6007290). The cells were incubated for 1 h at 37 °C. Then, 10 µL detection reagent composed of 2.5% Eu3 + -anti-IP1 antibody and 2.5% IP1-d2 diluted in lysis buffer was added, and the cells were incubated for 1 h at room temperature before measurements. Measurements were performed on EnVision Multimode Plate Reader (PerkinElmer) using excitation light of 340 nm and emission light of 615 nm and 665 nm. The time resolved-fluorescence resonance energy transfer (TR-FRET) 665 nm/615 nm ratio, which is inversely proportional to the IP1 accumulation, was used to determine the IP1 response.
Pharmacological data and statistical analyses were performed in GraphPad Prism v9–10 (Graphpad Software Inc., San Diego, CA), which are also specifically described in the figure and table legends. The functional assay responses were normalized to buffer (0%) and Lundbeck Cmp 1a or JNJ-63533054 (100%), for Ca^2+ and IP1 experiments in the GPR139-CHOk1 stable cell line or Ca^2+, G protein activation, and arrestin-3 recruitment experiments in the HEK293A cells transiently transfected with GPR139, respectively. Data are from at least three independent experiments, unless stated otherwise. Concentration-response curves were fitted applying non-linear regression using the log (agonist) versus response model with variable slope. ANOVA was applied for comparing results and determining statistical significance. Comparison of responses to the reference was performed using one-way ANOVA with Dunnett’s multiple comparisons test at significance threshold of p < 0.05. Comparison of responses across assays and ligands was performed using two-way ANOVA with Tukey’s multiple comparisons test at a significance threshold of p < 0.05.

[3] = individual replicates (Supplementary Figure 5)
[4] = log [Compound] M -4.5, replicate experiments
[5] = log [Compound] M -5.0, replicate experiments
[6] = log [Compound] M -5.5, replicate experiments
[7] = log [Compound] M -6.0, replicate experiments
[8] = log [Compound] M -6.5, replicate experiments
[9] = log [Compound] M -7.0, replicate experiments
[10] = log [Compound] M -7.5, replicate experiments
[11] = log [Compound] M -8.0, replicate experiments
[12] = log [compound] M -4.5, individual replicates
[13] = log [compound] M -5.0, individual replicates
[14] = log [compound] M -5.5, individual replicates
[15] = log [compound] M -6.0, individual replicates
[16] = log [compound] M -6.5, individual replicates
[17] = log [compound] M -7.0, individual replicates
[18] = log [compound] M -7.5, individual replicates
[19] = log [compound] M -8.0, individual replicates
[20] = individual replicates (Supplementary Figure 2)
[21] = Supplementary Table 2, mean ± SEM, read-out: pEC50 IP1 (converted)

Compound | Ca2+ signal (% of Carbachol) [1, 3] | Emax ([2]; Supplementary Table 2) [%] | IP1 response (% of Cmp 1a) [2, 4] | IP1 response (% of Cmp 1a) [2, 5] | IP1 response (% of Cmp 1a) [2, 6] | IP1 response (% of Cmp 1a) [2, 7] | IP1 response (% of Cmp 1a) [2, 8] | IP1 response (% of Cmp 1a) [2, 9] | IP1 response (% of Cmp 1a) [2, 10] | IP1 response (% of Cmp 1a) [2, 11] | IP1 response (% of Cmp 1a) [2, 12] | IP1 response (% of Cmp 1a) [2, 13] | IP1 response (% of Cmp 1a) [2, 14] | IP1 response (% of Cmp 1a) [2, 15] | IP1 response (% of Cmp 1a) [2, 16] | IP1 response (% of Cmp 1a) [2, 17] | IP1 response (% of Cmp 1a) [2, 18] | IP1 response (% of Cmp 1a) [2, 19] | Ca2+ signal (% of Carbachol) [1, 20] | EC50 [2, 21] [nM] | other results
Cc1cscc1-c1nc(CC(=O)NC(C)c2ccccc2)no1 (stereo not drawn) [Compound 1.1, CC(C1=CC=CC=C1)NC(CC2=NOC(C3=CSC=C3C)=N2)=O] | -5 % of Carbachol and -11 % of Carbachol | 91 ± 10 | 92 % of Cmp 1a and 58 % of Cmp 1a and 83 % of Cmp 1a and 87 % of Cmp 1a | 112 % of Cmp 1a and 74 % of Cmp 1a and 80 % of Cmp 1a and 115 % of Cmp 1a | 111 % of Cmp 1a and 87 % of Cmp 1a and 96 % of Cmp 1a and 100 % of Cmp 1a | 125 % of Cmp 1a and 85 % of Cmp 1a and 89 % of Cmp 1a | 112 % of Cmp 1a and 76 % of Cmp 1a (2×) and 95 % of Cmp 1a | 71 % of Cmp 1a and 56 % of Cmp 1a and 38 % of Cmp 1a and 67 % of Cmp 1a | 56 % of Cmp 1a and 27 % of Cmp 1a and 28 % of Cmp 1a and 45 % of Cmp 1a | 22 % of Cmp 1a and 5 % of Cmp 1a and -0.544 % of Cmp 1a and 16 % of Cmp 1a | 92 % of Cmp 1a and 58 % of Cmp 1a and 83 % of Cmp 1a and 87 % of Cmp 1a | 112 % of Cmp 1a and 74 % of Cmp 1a and 80 % of Cmp 1a and 115 % of Cmp 1a | 111 % of Cmp 1a and 87 % of Cmp 1a and 96 % of Cmp 1a and 100 % of Cmp 1a | 125 % of Cmp 1a and 85 % of Cmp 1a and 89 % of Cmp 1a | 112 % of Cmp 1a and 76 % of Cmp 1a (2×) and 95 % of Cmp 1a | 71 % of Cmp 1a and 56 % of Cmp 1a and 38 % of Cmp 1a and 67 % of Cmp 1a | 56 % of Cmp 1a and 27 % of Cmp 1a and 28 % of Cmp 1a and 45 % of Cmp 1a | 22 % of Cmp 1a and 5 % of Cmp 1a and -0.544 % of Cmp 1a and 16 % of Cmp 1a |  |  | EC50 ([2]; GPR139-CHOk1, read-out: EC50, IP1 accumulation): 50 nM
COC(=O)c1cc(NC(=O)NC(C)c2cccc(F)c2F)ccc1C (stereo not drawn) [Compound 2, COC(=O)C=1C=C(NC(=O)NC(C)C=2C=CC=C(F)C2F)C=CC1C] |  | 85 ± 8 | 75 % of Cmp 1a and 55 % of Cmp 1a and 76 % of Cmp 1a and 90 % of Cmp 1a | 64 % of Cmp 1a and 44 % of Cmp 1a and 66 % of Cmp 1a and 76 % of Cmp 1a | 50 % of Cmp 1a and 41 % of Cmp 1a and 46 % of Cmp 1a and 65 % of Cmp 1a | 34 % of Cmp 1a and 26 % of Cmp 1a and 28 % of Cmp 1a and 41 % of Cmp 1a | 18 % of Cmp 1a and 16 % of Cmp 1a and 10 % of Cmp 1a and 22 % of Cmp 1a | 8 % of Cmp 1a (2×) and 5 % of Cmp 1a and 3.81 % of Cmp 1a | 6.59 % of Cmp 1a and -1 % of Cmp 1a and 0.549 % of Cmp 1a and 2.33 % of Cmp 1a | 1.89 % of Cmp 1a and -0.926 % of Cmp 1a and 0.158 % of Cmp 1a and 0.886 % of Cmp 1a |  |  |  |  |  |  |  |  | -10 % of Carbachol and 1.81 % of Carbachol | 1580 | 
Cc1noc(CNC(=O)C2(C)CCCCN2C(=O)c2ccccc2)n1 (stereo not drawn) [Compound 4, CC1=NOC(CNC(=O)C2(C)CCCCN2C(=O)C=3C=CC=CC3)=N1] |  |  | 109 % of Cmp 1a and 91 % of Cmp 1a and 86 % of Cmp 1a | 40 % of Cmp 1a and 36 % of Cmp 1a and 37 % of Cmp 1a | 13 % of Cmp 1a and 11 % of Cmp 1a and 14 % of Cmp 1a | 6.46 % of Cmp 1a and 2.74 % of Cmp 1a and 2.36 % of Cmp 1a | -0.931 % of Cmp 1a and -1.18 % of Cmp 1a and 0.0496 % of Cmp 1a | 3.23 % of Cmp 1a and -0.893 % of Cmp 1a and -2.41 % of Cmp 1a | 2.42 % of Cmp 1a and -4 % of Cmp 1a and -2.57 % of Cmp 1a | 1.1 % of Cmp 1a and -0.196 % of Cmp 1a and -1.07 % of Cmp 1a |  |  |  |  |  |  |  |  | -17 % of Carbachol and -15 % of Carbachol |  | EC50 ([2]; read-out: pEC50 IP1 (converted)): 12600 nM
Cc1cc(-c2nc(CC(=O)NC(C)c3ccccc3)no2)n(C)n1 (stereo not drawn) [Compound 1.16, CC(C1=CC=CC=C1)NC(CC2=NOC(C3=CC(C)=NN3C)=N2)=O] | -2 % of Carbachol and 14 % of Carbachol and 5 % of Carbachol | 118 ± 5 |  |  |  |  |  |  |  |  | 95 % of Cmp 1a and 98 % of Cmp 1a and 122 % of Cmp 1a and 128 % of Cmp 1a | 115 % of Cmp 1a and 88 % of Cmp 1a and 90 % of Cmp 1a and 87 % of Cmp 1a | 53 % of Cmp 1a and 54 % of Cmp 1a and 79 % of Cmp 1a and 67 % of Cmp 1a | 44 % of Cmp 1a and 38 % of Cmp 1a (2×) and 47 % of Cmp 1a | 8 % of Cmp 1a and 17 % of Cmp 1a and 10 % of Cmp 1a and 15 % of Cmp 1a | -3.74 % of Cmp 1a and -1.83 % of Cmp 1a and 5.46 % of Cmp 1a and 8 % of Cmp 1a | -0.538 % of Cmp 1a and 1 % of Cmp 1a and -0.216 % of Cmp 1a and 6 % of Cmp 1a | -11 % of Cmp 1a and -1 % of Cmp 1a and 0.939 % of Cmp 1a and 0.124 % of Cmp 1a |  | 2510 | 
